Test results taken from paper PMC3433420 (PLoS ONE, 2012).
Residues, ends and D or L forms follow the SMILES beside them.

Key:
[1] = target: SYK-NC tandem SH2 domains (Homo sapiens, UniProt P43405); assay: FP saturation binding assay
GRB7 SH2 domain = GRB7 SH2 domain (Homo sapiens, UniProt Q14451); assay: FP saturation binding assay
SH2 and PTB domains = target: T1, SH2 and PTB domains (Homo sapiens, UniProt Q08881); assay: In-house protein microarrays (with or without 5 mM DTT), protein named per line; format: binding; conditions: protein ITK
T1 construct: thioredoxin; made in house; host or cells: BL21(DE3)pLysS E. coli
T1 sequence (Q08881 1-620): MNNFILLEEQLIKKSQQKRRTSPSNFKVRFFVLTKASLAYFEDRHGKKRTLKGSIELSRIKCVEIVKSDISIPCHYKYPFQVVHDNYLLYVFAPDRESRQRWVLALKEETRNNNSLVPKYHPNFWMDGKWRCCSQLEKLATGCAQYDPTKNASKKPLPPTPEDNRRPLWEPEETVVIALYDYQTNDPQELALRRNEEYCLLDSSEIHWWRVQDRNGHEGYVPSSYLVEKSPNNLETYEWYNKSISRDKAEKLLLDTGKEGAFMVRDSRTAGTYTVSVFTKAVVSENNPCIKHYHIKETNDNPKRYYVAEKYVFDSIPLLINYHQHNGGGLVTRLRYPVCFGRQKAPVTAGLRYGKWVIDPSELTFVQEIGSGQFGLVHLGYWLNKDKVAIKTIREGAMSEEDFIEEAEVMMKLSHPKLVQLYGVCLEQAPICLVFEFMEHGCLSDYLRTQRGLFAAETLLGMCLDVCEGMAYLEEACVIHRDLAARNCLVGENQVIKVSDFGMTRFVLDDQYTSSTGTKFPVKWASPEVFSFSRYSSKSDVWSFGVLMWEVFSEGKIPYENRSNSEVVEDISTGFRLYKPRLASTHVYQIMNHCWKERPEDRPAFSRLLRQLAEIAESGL
Summary of the method: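 Recombinant domains (~40 µM) spotted in duplicate on aldehyde slides, quenched 1 h at room temperature in HEPES/KCl/Tween-20 buffer pH 7.8 with 5 mM DTT and 1% BSA, then probed with rhodamine-labeled peptide. Thioredoxin-subtracted mean fluorescence fitted for KD.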

[2] = target: PLCG2-NC tandem SH2 domains (Homo sapiens, UniProt P16885); assay: FP saturation binding assay
Chain of PLCG2-NC tandem SH2 domains (P16885 532-735 limits assumed): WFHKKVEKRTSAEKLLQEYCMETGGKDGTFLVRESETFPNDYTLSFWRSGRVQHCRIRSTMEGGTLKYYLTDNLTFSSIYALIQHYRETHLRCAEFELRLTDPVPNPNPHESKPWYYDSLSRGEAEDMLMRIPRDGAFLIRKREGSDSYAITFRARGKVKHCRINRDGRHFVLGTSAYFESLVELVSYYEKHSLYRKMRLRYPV

SHC1-PTB domain = target: T2, SHC1-PTB domain (Homo sapiens, UniProt P29353); assay: FP saturation binding assay
T2 sequence (P29353 156-339 limits assumed): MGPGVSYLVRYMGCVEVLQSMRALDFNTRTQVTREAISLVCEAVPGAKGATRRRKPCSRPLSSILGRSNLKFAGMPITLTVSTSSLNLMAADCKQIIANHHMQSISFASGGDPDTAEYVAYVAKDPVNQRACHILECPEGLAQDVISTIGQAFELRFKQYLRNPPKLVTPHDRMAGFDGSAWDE

LCP2 SH2 domain = LCP2 SH2 domain (Homo sapiens, UniProt Q13094); assay: FP saturation binding assay
Chain of LCP2 SH2 domain (Q13094 422-530 limits assumed): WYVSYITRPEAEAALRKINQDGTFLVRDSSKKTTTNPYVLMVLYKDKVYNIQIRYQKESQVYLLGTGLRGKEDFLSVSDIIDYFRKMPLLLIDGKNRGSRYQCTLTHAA

BLNK SH2 domain = BLNK SH2 domain (Homo sapiens, UniProt Q8WV28); assay: FP saturation binding assay
Chain of BLNK SH2 domain (Q8WV28 346-453 limits assumed): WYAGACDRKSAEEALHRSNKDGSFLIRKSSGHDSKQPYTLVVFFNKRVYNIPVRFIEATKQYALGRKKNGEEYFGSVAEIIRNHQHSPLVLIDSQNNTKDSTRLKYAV

SH2D1B SH2 domain = target: T3, SH2D1B SH2 domain (Homo sapiens, UniProt O14796); assay: FP saturation binding assay
T3 sequence (O14796 5-101 limits assumed): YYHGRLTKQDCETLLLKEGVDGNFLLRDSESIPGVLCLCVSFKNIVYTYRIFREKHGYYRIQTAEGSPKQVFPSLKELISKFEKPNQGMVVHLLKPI

Chain of GRB7 SH2 domain (Q14451 431-527 limits assumed): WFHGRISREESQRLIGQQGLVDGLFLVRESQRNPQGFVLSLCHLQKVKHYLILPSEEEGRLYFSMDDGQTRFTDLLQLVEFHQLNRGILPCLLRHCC

CSCC[C@H](NC(=O)[C@H](Cc1ccc(OP(=O)(O)O)cc1)NC(=O)CNC(=O)[C@H](CCC(=O)O)NC(=O)[C@H](CCC(=O)O)NC(=O)[C@H](CC(=O)O)NC(=O)[C@H](CC(C)C)NC(=O)[C@H](CCC(=O)O)NC(=O)CNC(=O)[C@H](CCCNC(=N)N)NC(=O)[C@@H]1CCCN1)C(=O)N[C@H](C(=O)N1CCC[C@H]1C(=O)N[C@@H](CCSC)C(=O)N[C@@H](CCCNC(=N)N)C(=O)N[C@@H](CC(=O)O)C(=O)N[C@@H](CCCCN)C(=O)N[C@@H](CC(=O)O)C(=O)O)[C@@H](C)O [ErbB4 1150 18-mer] (HELM PEPTIDE1{P.R.G.E.L.D.E.E.G.[O=C([C@H](Cc1ccc(OP(=O)(O)O)cc1)N[*:1])[*:2]].M.T.P.M.R.D.K.D}$$$$V2.0)
Kd [1]: 6.19 µM

CC(C)C[C@H](NC(=O)[C@H](Cc1ccc(OP(=O)(O)O)cc1)NC(=O)[C@H](CC(C)C)NC(=O)[C@@H]1CCCN1C(=O)[C@H](CCC(=O)O)NC(=O)[C@H](CC(N)=O)NC(=O)[C@@H](NC(=O)[C@H](Cc1ccc(O)cc1)NC(=O)[C@H](CCC(=O)O)NC(=O)[C@H](CC(=O)O)NC(=O)[C@@H](N)CCC(=O)O)C(C)C)C(=O)N[C@@H](CC(N)=O)C(=O)N[C@H](C(=O)N[C@@H](Cc1ccccc1)C(=O)N[C@@H](C)C(=O)N[C@@H](CC(N)=O)C(=O)N[C@H](C(=O)N[C@@H](CC(=O)O)C(=O)O)[C@@H](C)O)[C@@H](C)O [ErbB4 1208 18-mer] (HELM PEPTIDE1{E.D.E.Y.V.N.E.P.L.[O=C([C@H](Cc1ccc(OP(=O)(O)O)cc1)N[*:1])[*:2]].L.N.T.F.A.N.T.D}$$$$V2.0)
Kd (GRB7 SH2 domain; Mean KD, protein GRB7, high-confidence ErbB interactions, mean of replicate hits): 9.99 µM

CCN(CC)c1ccc2c(-c3ccc(C(=O)N[C@@H](CC(N)=O)C(=O)NCC(=O)N4CCC[C@H]4C(=O)N4CCC[C@H]4C(=O)N[C@@H](CCCCN)C(=O)N[C@@H](C)C(=O)N[C@@H](CCC(=O)O)C(=O)N[C@@H](CC(=O)O)C(=O)N[C@@H](CCC(=O)O)C(=O)N[C@@H](Cc4ccc(OP(=O)(O)O)cc4)C(=O)N[C@H](C(=O)N[C@@H](CC(N)=O)C(=O)N[C@@H](CCC(=O)O)C(=O)N4CCC[C@H]4C(=O)N[C@@H](CC(C)C)C(=O)N[C@@H](Cc4ccc(O)cc4)C(=O)N[C@@H](CC(C)C)C(=O)N[C@@H](CC(=O)O)C(=O)O)C(C)C)cc3C(=O)[O-])c3ccc(=[N+](CC)CC)cc-3oc2c1 [ErbB4 1202 (18-mer)] (HELM PEPTIDE1{[CCN(CC)c1ccc2c(-c3ccc(C(=O)[*:2])cc3C(=O)[O-])c3ccc(=[N+](CC)CC)cc-3oc2c1].N.G.P.P.K.A.E.D.E.[O=C([C@H](Cc1ccc(OP(=O)(O)O)cc1)N[*:1])[*:2]].V.N.E.P.L.Y.L.D}$$$$V2.0)
Kd (SH2 and PTB domains; PM assay replicate # 39307, array fabrication # 39286): 0.72 µM

CC(C)C[C@H](NC(=O)[C@H](CC(N)=O)NC(=O)[C@@H](N)CC(=O)O)C(=O)N[C@@H](Cc1ccc(O)cc1)C(=O)N[C@@H](Cc1ccc(OP(=O)(O)O)cc1)C(=O)N[C@@H](Cc1c[nH]c2ccccc12)C(=O)N[C@@H](CC(=O)O)C(=O)N[C@@H](CCC(N)=O)C(=O)N[C@@H](CC(=O)O)C(=O)N1CCC[C@H]1C(=O)N1CCC[C@H]1C(=O)N[C@@H](CCC(=O)O)C(=O)N[C@@H](CC(=O)O)C(=O)O [ErbB2 1222 13-mer] (HELM PEPTIDE1{D.N.L.Y.[O=C([C@H](Cc1ccc(OP(=O)(O)O)cc1)N[*:1])[*:2]].W.D.Q.D.P.P.E.D}$$$$V2.0)
Kd [2]: 6.4 µM | Kd (SHC1-PTB domain): 2.96 µM | Kd (LCP2 SH2 domain): 11.7 µM

DNLYpYWDQDPPEd [ErbB2 pY1222]
interaction with GRB7 on the FP platform (GRB7 SH2 domain; peptides queried on both FP and PM platforms): only displayed interactions with GRB7 from the PM platform

CSCC[C@H](NC(=O)[C@H](Cc1ccc(OP(=O)(O)O)cc1)NC(=O)[C@H](CCC(=O)O)NC(=O)[C@H](Cc1ccc(O)cc1)NC(=O)CNC(=O)[C@@H](N)CC(C)C)C(=O)N[C@@H](CC(=O)O)C(=O)N[C@H](C(=O)NCC(=O)N[C@@H](CO)C(=O)N[C@@H](CC(=O)O)C(=O)N[C@@H](CC(C)C)C(=O)N[C@@H](CC(=O)O)C(=O)O)C(C)C [ErbB3 1224 13-mer] (HELM PEPTIDE1{L.G.Y.E.[O=C([C@H](Cc1ccc(OP(=O)(O)O)cc1)N[*:1])[*:2]].M.D.V.G.S.D.L.D}$$$$V2.0)
Kd (BLNK SH2 domain): 3.63 µM | Kd (SHC1-PTB domain): 5.27 µM | Kd (SH2D1B SH2 domain): 1.47 µM

CC(C)C[C@H](NC(=O)[C@@H]1CCCN1C(=O)[C@H](C)NC(=O)[C@@H](NC(=O)[C@H](Cc1ccc(OP(=O)(O)O)cc1)NC(=O)CNC(=O)[C@H](CC(=O)O)NC(=O)[C@@H](NC(=O)[C@@H](N)CCC(=O)O)[C@@H](C)O)C(C)C)C(=O)N[C@H](C(=O)N[C@@H](CS)C(=O)N[C@@H](CO)C(=O)N[C@@H](CC(=O)O)C(=O)O)[C@@H](C)O [ErbB2 pY1127]
Kd (SH2 and PTB domains; PM assay replicate # 39336, array fabrication # 39329): 0.80 µM | Kd (SH2 and PTB domains; PM assay replicate # 39337, array fabrication # 39329): 2.58 µM
